According to patent US20060276423A1, “Survivin-directed RNA interference-compositions and methods” (priority 2005, published 2006):
Starred links: 1 amine or outer side, 2 acyl side, 3 side chain; linkers in the order of their positions; H or OH if unused. Positions of bridges follow the written chain, without caps; N, C: chain ends. Non-standard residues stand in square brackets, D forms with d. Residues, ends and D or L forms follow the SMILES beside them. Chains are numbered I, II in the order given. Actinocin(9to1) = Cc1c2oc3c(C)ccc(C(=O)[*:1])c3nc-2c(C(=O)[*:2])c(N)c1=O; NMeV = CN[C@H](C(=O)O)C(C)C; Sar = CNCC(=O)O

System: Human Umbilical Vein Endothelial (HUVE) cells
Test: In vitro tube formation assay on BME
Type: cell-based
Conditions: most marked between 4 and 16 hours after plating
Description: FIG. 7: Interference with Survivin-ΔEx3 inhibits angiogenesis in vitro. Human Umbilical Vein Endothelial (HUVE) cells were transfected with shRNAs of the instant invention or incubated with antibodies against Survivin-ΔEx3 and the results compared to HUVE cells treated with known inducers/inhibitors of in vitro angiogenesis. Treated/transfected cells were plated on growth factor reduced basement membrane extract (BME) to support in vitro tube formation. […] Quantitative data shown in (E) are mean±s.e. of 5 replicates per sample.
Survivin ΔEx3 activity was disrupted in an in vitro tube formation assay by either downregulating Survivin ΔEx3 mRNA with an shRNA or inhibiting Survivin ΔEx3 protein with an anti-Survivin ΔEx3 antibody. To downregulate transcription, an shRNA targeting the exon2-exon-4 boundary, specific for Survivin ΔEx3 was used. A scrambled shRNA and a cocktail of 3 shRNAs targeting all Survivin isoforms were used as controls (FIG. 7). HUVECs were transfected with shRNA plasmids in combination with a plasmid encoding eGFP. The cells were sterile sorted by FACS to isolate the population of cells that was successfully transfected, based on eGFP fluorescence. […] Tube formation was quantified by counting the number of branches and tube length from 5 representative fields per replicate, in a double-blinded fashion.

For `Cc1c2oc3c(C)ccc(C(=O)N[C@@H]4C(=O)N[C@H](C(C)C)C(=O)N5CCC[C@H]5C(=O)N(C)CC(=O)N(C)[C@@H](C(C)C)C(=O)O[C@@H]4C)c3nc-2c(C(=O)N[C@@H]2C(=O)N[C@H](C(C)C)C(=O)N3CCC[C@H]3C(=O)N(C)CC(=O)N(C)[C@@H](C(C)C)C(=O)O[C@@H]2C)c(N)c1=O` [actinomycin-D] (I: T[dV]P[Sar][NMeV] / II: T[dV]P[Sar][NMeV]; ester I:1-I:C, II:1-II:C; linker I:N-II:N via Actinocin(9to1)), the “tube formation on BME” value was “inhibition of tube formation”.
